Here are results for 23 compounds from US9663508B2, “Biaryl acyl-sulfonamide compounds as sodium channel inhibitors” (AMGEN INC., priority 2013, dated 2017).

One data set has as its target human Nav 1.5 (Homo sapiens (Human), UniProt Q14524). Put plainly: Nav 1.5 IonWorks Quattro (IWQ) in vitro assay. In kind it is cell-based. Particulars: read-out: NAV 1.5 IWQ IC50. Background: The patch-clamp technique gives a direct electrical read-out from membranes.
In a further data set the target is human Nav1.7 (Homo sapiens (Human), UniProt Q15858). Nature of the data set: Nav 1.7 in vitro PatchXpress (PX) assay. Type of data set: cell-based.

Structures are written as SMILES. Some results are limits rather than exact numbers.

In general, IC50 refers to the concentration at which inhibition is half-maximal.

Sequence of human Nav 1.5 (Q14524 whole entry): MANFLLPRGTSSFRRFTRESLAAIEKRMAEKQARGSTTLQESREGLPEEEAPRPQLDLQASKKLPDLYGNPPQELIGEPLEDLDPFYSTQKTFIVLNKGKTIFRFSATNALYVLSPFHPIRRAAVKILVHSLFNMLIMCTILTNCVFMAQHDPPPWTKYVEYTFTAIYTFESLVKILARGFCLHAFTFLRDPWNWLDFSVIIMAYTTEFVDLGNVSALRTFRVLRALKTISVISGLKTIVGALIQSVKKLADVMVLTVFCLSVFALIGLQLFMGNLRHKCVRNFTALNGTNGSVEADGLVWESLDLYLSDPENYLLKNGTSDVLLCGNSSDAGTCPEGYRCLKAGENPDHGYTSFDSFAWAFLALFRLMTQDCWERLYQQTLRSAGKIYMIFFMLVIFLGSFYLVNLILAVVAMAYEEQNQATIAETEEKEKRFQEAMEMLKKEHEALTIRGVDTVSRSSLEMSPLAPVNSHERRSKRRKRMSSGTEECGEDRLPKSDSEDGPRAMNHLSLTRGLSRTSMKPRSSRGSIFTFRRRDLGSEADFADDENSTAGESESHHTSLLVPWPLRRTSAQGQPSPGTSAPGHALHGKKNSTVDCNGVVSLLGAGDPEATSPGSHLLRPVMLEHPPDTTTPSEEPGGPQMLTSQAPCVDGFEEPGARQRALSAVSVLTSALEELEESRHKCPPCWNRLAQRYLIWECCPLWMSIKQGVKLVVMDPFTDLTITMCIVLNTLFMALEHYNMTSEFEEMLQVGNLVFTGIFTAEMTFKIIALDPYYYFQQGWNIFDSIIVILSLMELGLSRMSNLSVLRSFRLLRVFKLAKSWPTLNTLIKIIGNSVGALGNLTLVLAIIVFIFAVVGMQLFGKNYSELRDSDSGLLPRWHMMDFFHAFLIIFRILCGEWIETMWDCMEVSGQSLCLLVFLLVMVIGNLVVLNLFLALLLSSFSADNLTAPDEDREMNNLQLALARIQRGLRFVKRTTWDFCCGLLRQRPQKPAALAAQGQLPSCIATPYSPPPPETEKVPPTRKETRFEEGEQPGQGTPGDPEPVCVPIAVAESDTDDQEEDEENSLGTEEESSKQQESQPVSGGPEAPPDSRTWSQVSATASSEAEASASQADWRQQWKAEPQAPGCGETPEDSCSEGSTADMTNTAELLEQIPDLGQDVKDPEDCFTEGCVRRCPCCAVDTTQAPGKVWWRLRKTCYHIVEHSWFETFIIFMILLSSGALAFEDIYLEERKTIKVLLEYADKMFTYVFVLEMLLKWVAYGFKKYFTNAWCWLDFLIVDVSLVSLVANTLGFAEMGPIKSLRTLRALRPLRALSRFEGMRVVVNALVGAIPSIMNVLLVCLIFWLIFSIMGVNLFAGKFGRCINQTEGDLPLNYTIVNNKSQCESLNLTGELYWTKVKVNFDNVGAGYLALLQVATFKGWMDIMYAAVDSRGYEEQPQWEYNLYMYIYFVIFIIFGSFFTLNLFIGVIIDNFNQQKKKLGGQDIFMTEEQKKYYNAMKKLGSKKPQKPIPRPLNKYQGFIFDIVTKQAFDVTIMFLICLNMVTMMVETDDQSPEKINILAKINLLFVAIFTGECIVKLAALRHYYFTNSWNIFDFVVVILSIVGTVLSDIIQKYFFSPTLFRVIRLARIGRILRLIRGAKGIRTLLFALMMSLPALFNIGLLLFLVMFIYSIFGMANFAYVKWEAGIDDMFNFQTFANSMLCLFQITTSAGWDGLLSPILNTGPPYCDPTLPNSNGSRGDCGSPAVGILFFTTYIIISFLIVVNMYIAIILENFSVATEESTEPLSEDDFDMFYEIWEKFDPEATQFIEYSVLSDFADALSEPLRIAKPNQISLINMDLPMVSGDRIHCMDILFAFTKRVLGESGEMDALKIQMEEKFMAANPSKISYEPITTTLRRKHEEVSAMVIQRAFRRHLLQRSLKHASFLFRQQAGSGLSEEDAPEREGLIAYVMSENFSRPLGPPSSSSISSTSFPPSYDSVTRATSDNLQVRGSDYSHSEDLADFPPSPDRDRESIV
Sequence of human Nav1.7 (Q15858 whole entry): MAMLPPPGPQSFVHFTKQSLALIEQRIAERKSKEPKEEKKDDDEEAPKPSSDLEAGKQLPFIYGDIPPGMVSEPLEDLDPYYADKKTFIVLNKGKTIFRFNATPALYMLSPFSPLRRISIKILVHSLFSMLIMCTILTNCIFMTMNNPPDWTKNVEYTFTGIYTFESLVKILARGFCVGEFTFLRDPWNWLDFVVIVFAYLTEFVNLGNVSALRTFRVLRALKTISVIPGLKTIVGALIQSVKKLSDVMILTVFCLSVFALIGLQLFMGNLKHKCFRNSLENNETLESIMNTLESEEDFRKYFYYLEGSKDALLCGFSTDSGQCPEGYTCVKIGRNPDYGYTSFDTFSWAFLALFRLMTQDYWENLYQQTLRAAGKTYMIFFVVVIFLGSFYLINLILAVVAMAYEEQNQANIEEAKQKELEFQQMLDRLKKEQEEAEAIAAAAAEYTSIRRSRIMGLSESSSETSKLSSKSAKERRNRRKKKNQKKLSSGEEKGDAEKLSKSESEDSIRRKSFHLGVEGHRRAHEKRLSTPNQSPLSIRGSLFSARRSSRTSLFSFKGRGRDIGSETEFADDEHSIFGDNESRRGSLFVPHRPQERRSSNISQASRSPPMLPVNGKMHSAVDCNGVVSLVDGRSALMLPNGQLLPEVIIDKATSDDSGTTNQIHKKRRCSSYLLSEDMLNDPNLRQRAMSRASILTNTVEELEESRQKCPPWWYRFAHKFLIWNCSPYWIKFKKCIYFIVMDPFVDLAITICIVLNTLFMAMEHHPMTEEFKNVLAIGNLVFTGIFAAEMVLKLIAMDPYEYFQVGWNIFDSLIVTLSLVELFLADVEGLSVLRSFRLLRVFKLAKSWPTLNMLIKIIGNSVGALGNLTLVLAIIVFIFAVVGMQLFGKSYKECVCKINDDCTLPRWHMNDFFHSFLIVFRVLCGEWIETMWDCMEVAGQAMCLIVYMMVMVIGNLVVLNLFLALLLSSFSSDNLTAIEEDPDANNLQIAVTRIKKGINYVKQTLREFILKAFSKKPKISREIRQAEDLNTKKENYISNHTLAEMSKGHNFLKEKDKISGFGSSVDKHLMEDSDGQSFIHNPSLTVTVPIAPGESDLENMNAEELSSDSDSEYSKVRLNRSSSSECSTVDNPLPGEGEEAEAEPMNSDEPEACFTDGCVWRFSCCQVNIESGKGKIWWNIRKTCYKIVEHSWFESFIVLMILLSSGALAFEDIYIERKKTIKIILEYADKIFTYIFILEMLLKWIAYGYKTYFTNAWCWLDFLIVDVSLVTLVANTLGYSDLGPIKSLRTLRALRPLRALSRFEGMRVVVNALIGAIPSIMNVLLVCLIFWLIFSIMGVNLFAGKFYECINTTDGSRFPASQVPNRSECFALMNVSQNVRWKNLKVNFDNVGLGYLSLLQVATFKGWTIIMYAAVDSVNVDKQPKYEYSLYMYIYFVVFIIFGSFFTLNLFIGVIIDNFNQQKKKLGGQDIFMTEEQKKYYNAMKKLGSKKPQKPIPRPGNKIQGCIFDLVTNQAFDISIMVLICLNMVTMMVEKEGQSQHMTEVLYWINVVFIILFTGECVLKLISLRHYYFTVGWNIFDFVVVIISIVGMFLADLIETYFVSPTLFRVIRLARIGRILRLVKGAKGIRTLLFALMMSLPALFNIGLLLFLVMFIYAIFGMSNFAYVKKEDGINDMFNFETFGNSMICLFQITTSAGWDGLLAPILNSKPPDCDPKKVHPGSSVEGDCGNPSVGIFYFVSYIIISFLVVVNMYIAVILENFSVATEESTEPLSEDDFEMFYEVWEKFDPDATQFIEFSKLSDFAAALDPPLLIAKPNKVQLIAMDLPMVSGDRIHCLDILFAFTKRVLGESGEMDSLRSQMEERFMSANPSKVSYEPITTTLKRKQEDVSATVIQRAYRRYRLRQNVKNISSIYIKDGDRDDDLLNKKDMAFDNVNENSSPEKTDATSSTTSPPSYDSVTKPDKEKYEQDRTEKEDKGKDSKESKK

Consider `CC[C@@H](Oc1ncc(-c2cc(F)c(C(=O)NS(C)(=O)=O)cc2C)cc1Cl)c1ccc(Cl)cc1` [Example 640, 4-(5-chloro-6-(((1R)-1-(4-chlorophenyl)propyl)oxy)-3-pyridinyl)-2-fluoro-5-methyl-N-(methylsulfonyl)benzamide, 4-(5-chloro-6-(((1S)-1-(4-chlorophenyl)propyl)oxy)-3-pyridinyl)-2-fluoro-5-methyl-N-(methylsulfonyl)benzamide], for which the IC50 at human Nav 1.5 was greater than 3000 nM; on human Nav1.7 it was 90.8 nM.
Take `Cc1cc(C(=O)NS(C)(=O)=O)c(F)cc1-c1cnc(O[C@H](C)C2CCC2)c(Cl)c1` [Example 641, 4-(5-chloro-6-((1R)-1-cyclobutylethoxy)-3-pyridinyl)-2-fluoro-5-methyl-N-(methylsulfonyl)benzamide, 4-(5-chloro-6-((1S)-1-cyclobutylethoxy)-3-pyridinyl)-2-fluoro-5-methyl-N-(methylsulfonyl)benzamide]: the 50% inhibitory concentration (IC50) came out at 9320 nM on human Nav 1.5 and 111 nM against human Nav1.7.
For `Cc1cc(C(=O)NS(C)(=O)=O)c(F)cc1-c1cnc(Oc2cc(C(F)(F)F)ccc2Cl)c(Cl)c1` [Example 642, 4-(5-chloro-6-(2-chloro-5-(trifluoromethyl)phenoxy)-3-pyridinyl)-2-fluoro-5-methyl-N-(methylsulfonyl)benzamide], in that order: greater than 3000 nM and 70.5 nM.
As for `Cc1cc(C(=O)NS(C)(=O)=O)c(F)cc1-c1cnc(Oc2ccc(C)c(F)c2F)c(Cl)c1` [Example 643, 4-(5-chloro-6-(2,3-difluoro-4-methylphenoxy)-3-pyridinyl)-2-fluoro-5-methyl-N-(methylsulfonyl)benzamide], the IC50 on human Nav 1.5 turned out to be 5440 nM; against human Nav1.7, 79.2 nM.
For `Cc1cc(C(=O)NS(C)(=O)=O)c(F)cc1-c1cnc(Oc2c(Cl)cc(F)cc2Cl)c(Cl)c1` [Example 644, 4-(5-chloro-6-(2,6-dichloro-4-fluorophenoxy)-3-pyridinyl)-2-fluoro-5-methyl-N-(methylsulfonyl)benzamide], in that order: greater than 3000 nM and 82.8 nM.
For `CCOc1ccc(Oc2ncc(-c3cc(F)c(C(=O)NS(C)(=O)=O)cc3C)cc2Cl)cc1F` [Example 645, 4-(5-chloro-6-(4-ethoxy-3-fluorophenoxy)-3-pyridinyl)-2-fluoro-5-methyl-N-(methylsulfonyl)benzamide], in that order: greater than 3000 nM and 97.3 nM.
For the compound `Cc1cc(C(=O)NS(C)(=O)=O)c(F)cc1-c1cnc(N2CCC[C@H]2c2ccccc2)c(Cl)c1` [Example 646, 4-(5-chloro-6-((2S)-2-phenyl-1-pyrrolidinyl)-3-pyridinyl)-2-fluoro-5-methyl-N-(methylsulfonyl)benzamide], the figures for the IC50 at human Nav 1.5 and at human Nav1.7 were greater than 3000 nM and 99.9 nM, respectively.
Regarding `Cc1cc(C(=O)NS(C)(=O)=O)c(F)cc1-c1cnc(O[C@H](C)c2nc3ccccc3s2)c(Cl)c1` [Example 647, 4-(6-((1R)-1-(1,3-benzothiazol-2-yl)ethoxy)-5-chloro-3-pyridinyl)-2-fluoro-5-methyl-N-(methylsulfonyl)benzamide, 4-(6-((1S)-1-(1,3-benzothiazol-2-yl)ethoxy)-5-chloro-3-pyridinyl)-2-fluoro-5-methyl-N-(methylsulfonyl)benzamide], the IC50 on human Nav 1.5 was greater than 3000 nM; against human Nav1.7, 76 nM.
For the compound `COc1ccccc1C[C@@H](C)Oc1ncc(-c2cc(F)c(C(=O)NS(C)(=O)=O)cc2C)cc1Cl` [Example 649, 4-(5-chloro-6-((1R)-2-(2-methoxyphenyl)-1-methylethoxy)-3-pyridinyl)-2-fluoro-5-methyl-N-(methylsulfonyl)benzamide, 4-(5-chloro-6-((1S)-2-(2-methoxyphenyl)-1-methylethoxy)-3-pyridinyl)-2-fluoro-5-methyl-N-(methylsulfonyl)benzamide], the IC50 was greater than 3000 nM on human Nav 1.5 and 92.9 nM against human Nav1.7.
Consider `CC[C@@H](Oc1ncc(-c2cc(F)c(C(=O)NS(C)(=O)=O)cc2C)cc1Cl)c1ccc(F)cc1` [Example 650, 4-(5-chloro-6-(((1R)-1-(4-fluorophenyl)propyl)oxy)-3-pyridinyl)-2-fluoro-5-methyl-N-(methylsulfonyl)benzamide], for which the IC50 at human Nav 1.5 was greater than 3000 nM; at human Nav1.7 it was 78.7 nM.
As for `CC[C@H](Oc1ncc(-c2cc(F)c(C(=O)NS(C)(=O)=O)cc2C)cc1Cl)c1ccc(F)cc1` [Example 651, 4-(5-chloro-6-(((1S)-1-(4-fluorophenyl)propyl)oxy)-3-pyridinyl)-2-fluoro-5-methyl-N-(methylsulfonyl)benzamide], the IC50 at human Nav 1.5 is greater than 3000 nM; against human Nav1.7 it was 73.5 nM.
Regarding `Cc1cc(C(=O)NS(C)(=O)=O)c(F)cc1-c1cnc(O[C@H](C)c2ccc(F)cc2Cl)c(Cl)c1` [Example 652, 4-(5-chloro-6-((1R)-1-(2-chloro-4-fluorophenyl)ethoxy)-3-pyridinyl)-2-fluoro-5-methyl-N-(methylsulfonyl)benzamide, 4-(5-chloro-6-((1S)-1-(2-chloro-4-fluorophenyl)ethoxy)-3-pyridinyl)-2-fluoro-5-methyl-N-(methylsulfonyl)benzamide], the IC50 on human Nav 1.5 is greater than 3000 nM; against human Nav1.7, 66.4 nM.
As for `Cc1cc(C(=O)NS(C)(=O)=O)c(F)cc1-c1cnc(O[C@H](C)c2nc3cc(Cl)ccc3s2)c(Cl)c1` [Example 653, 4-(5-chloro-6-((1R)-1-(5-chloro-1,3-benzothiazol-2-yl)ethoxy)-3-pyridinyl)-2-fluoro-5-methyl-N-(methylsulfonyl)benzamide, 4-(5-chloro-6-((1S)-1-(5-chloro-1,3-benzothiazol-2-yl)ethoxy)-3-pyridinyl)-2-fluoro-5-methyl-N-(methylsulfonyl)benzamide], the IC50 on human Nav 1.5 was greater than 3000 nM; on human Nav1.7, 83.6 nM.
On to `Cc1cc(C(=O)NS(C)(=O)=O)c(F)cc1-c1cnc(OCc2cccc3ncccc23)c(Cl)c1` [Example 654, 4-(5-chloro-6-(5-quinolinylmethoxy)-3-pyridinyl)-2-fluoro-5-methyl-N-(methylsulfonyl)benzamide], for which the IC50 was greater than 3000 nM on human Nav 1.5 and 90.4 nM at human Nav1.7.
As for `Cc1cc(C(=O)NS(C)(=O)=O)c(F)cc1-c1cnc(N2CCC[C@@H]2c2cccc(Cl)c2)c(Cl)c1` [Example 656, 4-(5-chloro-6-((2R)-2-(3-chlorophenyl)-1-pyrrolidinyl)-3-pyridinyl)-2-fluoro-5-methyl-N-(methylsulfonyl)benzamide, 4-(5-chloro-6-((2S)-2-(3-chlorophenyl)-1-pyrrolidinyl)-3-pyridinyl)-2-fluoro-5-methyl-N-(methylsulfonyl)benzamide], the IC50 was greater than 3000 nM at human Nav 1.5 and 73.8 nM on human Nav1.7.
Regarding `Cc1ccc([C@H]2CCCN2c2ncc(-c3cc(F)c(C(=O)NS(C)(=O)=O)cc3C)cc2Cl)cc1` [Example 657, 4-(5-chloro-6-((2R)-2-(4-methylphenyl)-1-pyrrolidinyl)-3-pyridinyl)-2-fluoro-5-methyl-N-(methylsulfonyl)benzamide, 4-(5-chloro-6-((2S)-2-(4-methylphenyl)-1-pyrrolidinyl)-3-pyridinyl)-2-fluoro-5-methyl-N-(methylsulfonyl)benzamide], the figures for the IC50 at human Nav 1.5 and on human Nav1.7 were greater than 3000 nM and 92.9 nM, respectively.
For `Cc1cc(C(=O)NS(C)(=O)=O)c(F)cc1-c1cnc(N2CCC[C@@H]2c2ccc(Cl)c(Cl)c2)c(Cl)c1` [Example 658, 4-(5-chloro-6-((2R)-2-(3,4-dichlorophenyl)-1-pyrrolidinyl)-3-pyridinyl)-2-fluoro-5-methyl-N-(methylsulfonyl)benzamide, 4-(5-chloro-6-((2S)-2-(3,4-dichlorophenyl)-1-pyrrolidinyl)-3-pyridinyl)-2-fluoro-5-methyl-N-(methylsulfonyl)benzamide], in that order: greater than 3000 nM and 89.9 nM.
On to `Cc1cc(C(=O)NS(C)(=O)=O)c(F)cc1-c1cnc(O[C@H](C)c2cc(F)c(F)cc2F)c(Cl)c1` [Example 660, 4-(5-chloro-6-((1R)-1-(2,4,5-trifluorophenyl)ethoxy)-3-pyridinyl)-2-fluoro-5-methyl-N-(methylsulfonyl)benzamide, 4-(5-chloro-6-((1S)-1-(2,4,5-trifluorophenyl)ethoxy)-3-pyridinyl)-2-fluoro-5-methyl-N-(methylsulfonyl)benzamide], for which the values for the IC50 at human Nav 1.5 and against human Nav1.7 were 6440 nM and 92.5 nM, respectively.
For the compound `Cc1cc(C(=O)NS(C)(=O)=O)c(F)cc1-c1cnc(O[C@H](C)c2c(F)cc(F)cc2F)c(Cl)c1` [Example 661, 4-(5-chloro-6-((1R)-1-(2,4,6-trifluorophenyl)ethoxy)-3-pyridinyl)-2-fluoro-5-methyl-N-(methylsulfonyl)benzamide, 4-(5-chloro-6-((1S)-1-(2,4,6-trifluorophenyl)ethoxy)-3-pyridinyl)-2-fluoro-5-methyl-N-(methylsulfonyl)benzamide], the IC50 on human Nav 1.5 was greater than 10000 nM; on human Nav1.7, 76.9 nM.
For `Cc1cc(C(=O)NS(C)(=O)=O)c(F)cc1-c1cnc(Oc2ccc(C)c3c2CCC3)c(Cl)c1` [Example 662, 4-(5-chloro-6-((7-methyl-2,3-dihydro-1H-inden-4-yl)oxy)-3-pyridinyl)-2-fluoro-5-methyl-N-(methylsulfonyl)benzamide], the IC50 at human Nav 1.5 stood at 3770 nM; on human Nav1.7, 88.2 nM.
`Cc1cc(C(=O)NS(C)(=O)=O)c(F)cc1-c1cnc(Oc2ccc(Cl)c(Cl)c2)c(Cl)c1` [Example 664, 4-(5-chloro-6-(3,4-dichlorophenoxy)-3-pyridinyl)-2-fluoro-5-methyl-N-(methylsulfonyl)benzamide]: the IC50 on human Nav 1.5 is greater than 10000 nM; against human Nav1.7, 80.6 nM.
For the compound `Cc1cc(C(=O)NS(C)(=O)=O)c(F)cc1-c1cnc(Oc2ccc(Cl)cc2Cl)c(Cl)c1` [Example 665, 4-(5-chloro-6-(2,4-dichlorophenoxy)-3-pyridinyl)-2-fluoro-5-methyl-N-(methylsulfonyl)benzamide], the IC50 on human Nav 1.5 was 4680 nM; on human Nav1.7, 35.7 nM.
Take `Cc1cc(C(=O)NS(C)(=O)=O)c(F)cc1-c1cnc(Oc2c(F)cc(F)cc2Cl)c(Cl)c1` [Example 666, 4-(5-chloro-6-(2-chloro-4,6-difluorophenoxy)-3-pyridinyl)-2-fluoro-5-methyl-N-(methylsulfonyl)benzamide]: the IC50 at human Nav 1.5 stood at 3410 nM; at human Nav1.7, 49.7 nM.
